From ChEMBL document CHEMBL5370659 (J Med Chem, 2023)
Active and inactive are the calls of the source. The calls are words filed in the database; no cut-off is given here.

Legend:
[1] = MRT (0 to last) in Sprague-Dawley rat at 50 mg/kg, po measured upto 1440 mins by LC-MS/MS analysis; format: ADME, organism-based; conditions: in vivo
[2] = Drug uptake in Sprague-Dawley rat brain at 20 mg/kg, po measured at 0.5 hrs by LC-MS/MS analysis; format: ADME, organism-based; conditions: in vivo, BLD = below limit of detection
[3] = Mutagenicity in Salmonella typhimurium TA100 in presence or absence of rat liver S9 fraction by Ames test; format: toxicity; conditions: salmonella enterica subsp. enterica serovar typhimurium
[4] = MRT (0 to infinitive) in CD-1 (ICR) mouse at 50 mg/kg, po measured upto 1440 mins by LC-MS/MS analysis; format: ADME, organism-based; conditions: in vivo
[5] = Cmax in Sprague-Dawley rat at 50 mg/kg, po measured upto 1440 mins by LC-MS/MS analysis; format: ADME, organism-based; parameters: time < 1440 min, dose 50 mg/kg, route po; conditions: in vivo
[6] = MRT (0 to infinitive) in Sprague-Dawley rat at 10 mg/kg, iv measured upto 1440 mins by LC-MS/MS analysis; format: ADME, organism-based; conditions: in vivo
[7] = Permeability across apical to basal side in MDCK-MDR1 cells at pH 6.5/7.4 measured at 5 uM by LC-MS/MS analysis; format: ADME, cell-based, Canis lupus familiaris; conditions: dog, MDCK-MDR1, pH 6.5
[8] = Plasma protein binding in rat; format: ADME, cell-free; conditions: read-out: PPB (converted)
[9] = MRT (0 to last) in Sprague-Dawley rat at 10 mg/kg, iv measured upto 1440 mins by LC-MS/MS analysis; format: ADME, organism-based; conditions: in vivo
Cytochrome P450 3A4 = Cytochrome P450 3A4 (Homo sapiens, UniProt P08684); test: Inhibition of CYP3A4 in human liver microsome using midazolam as substrate measured upto 50 uM incubated for 10 mins followed by NADPH addition incubated for 10 mins by LC/MS/MS analysis; format: ADME; conditions: microsomes, 20 min
MC-38 [10] = test: Antitumor activity against mouse MC-38 cells subcutaneously transplanted in C57BL/6N mouse assessed as reduction in AUC of tumor growth at 50 mg/kg, po bid measured on day 20 relative to control; format: functional; conditions: MC-38, 480 h, route sc, time 20 day
[11] = Drug uptake in Sprague-Dawley rat lung at 50 mg/kg, po measured at 0.5 hrs by LC-MS/MS analysis; format: ADME, organism-based; conditions: read-out: Drug uptake
[12] = MRT (0 to last) in Sprague-Dawley rat at 20 mg/kg, po measured upto 1440 mins by LC-MS/MS analysis; format: ADME, organism-based; conditions: in vivo
[13] = Plasma protein binding in human; format: ADME, cell-free; conditions: read-out: PPB (converted)
[14] = Reduction in serotonin level in C57BL/6N mouse duodenum at 1.5 mg/kg, po bid treated for 7 days by HPLC analysis relative to control; format: functional; conditions: 168 h, time 7 day
[15] = biological target: T1, Tryptophan 5-hydroxylase 2 (Homo sapiens, UniProt Q8IWU9); test: Inhibition of recombinant MBP-tagged full length human THP2 using L-Trp as substrate assessed as formation of 5-HTP by measuring fluorescent property
T1 sequence (Q8IWU9 whole entry): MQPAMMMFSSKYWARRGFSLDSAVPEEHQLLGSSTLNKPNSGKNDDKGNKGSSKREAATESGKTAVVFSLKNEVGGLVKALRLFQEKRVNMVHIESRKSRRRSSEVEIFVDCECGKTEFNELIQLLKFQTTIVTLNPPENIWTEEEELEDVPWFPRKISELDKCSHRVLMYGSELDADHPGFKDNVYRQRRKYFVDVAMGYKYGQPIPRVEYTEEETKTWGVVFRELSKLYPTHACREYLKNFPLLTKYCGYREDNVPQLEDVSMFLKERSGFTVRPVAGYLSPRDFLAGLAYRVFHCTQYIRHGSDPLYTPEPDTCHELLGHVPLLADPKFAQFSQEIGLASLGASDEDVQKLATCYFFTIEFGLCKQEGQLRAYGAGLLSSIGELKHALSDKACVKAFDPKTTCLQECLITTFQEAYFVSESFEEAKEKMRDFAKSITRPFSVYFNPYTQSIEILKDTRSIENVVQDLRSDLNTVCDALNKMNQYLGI

[16] = MRT (0 to last) in CD-1 (ICR) mouse at 50 mg/kg, po measured upto 1440 mins by LC-MS/MS analysis; format: ADME, organism-based; conditions: in vivo
[17] = AUMCExtra in Sprague-Dawley rat at 50 mg/kg, po measured upto 1440 mins by LC-MS/MS analysis; format: ADME, organism-based; conditions: in vivo, 24 h
[18] = Reduction in serotonin level in C57BL/6N mouse duodenum at 15 mg/kg, po bid treated for 7 days by HPLC analysis relative to control; format: functional; conditions: 168 h, time 7 day
[19] = AUCExtra in Sprague-Dawley rat at 20 mg/kg, po measured upto 1440 mins by LC-MS/MS analysis; format: ADME, organism-based; conditions: in vivo, 24 h
Mus musculus [20] = test: Effect on C57BL/6N mouse assessed as brain serotonin turnover measuring 5-HT/TRP ratio at 1.5 to 50 mg/kg, po bid treated for 6 to 7 days; format: functional, organism-based; conditions: dose 1.5-50 mg/kg, time 6-7 day
[21] = Brain homogenate binding in mouse; format: ADME, tissue-based
[22] = biological target: T2, Tryptophan 5-hydroxylase 1 (Homo sapiens) (UniProt P17752); test: Binding affinity to […] (unknown origin) assessed as association rate constant by surface plasmon resonance analysis
T2 sequence (whole entry): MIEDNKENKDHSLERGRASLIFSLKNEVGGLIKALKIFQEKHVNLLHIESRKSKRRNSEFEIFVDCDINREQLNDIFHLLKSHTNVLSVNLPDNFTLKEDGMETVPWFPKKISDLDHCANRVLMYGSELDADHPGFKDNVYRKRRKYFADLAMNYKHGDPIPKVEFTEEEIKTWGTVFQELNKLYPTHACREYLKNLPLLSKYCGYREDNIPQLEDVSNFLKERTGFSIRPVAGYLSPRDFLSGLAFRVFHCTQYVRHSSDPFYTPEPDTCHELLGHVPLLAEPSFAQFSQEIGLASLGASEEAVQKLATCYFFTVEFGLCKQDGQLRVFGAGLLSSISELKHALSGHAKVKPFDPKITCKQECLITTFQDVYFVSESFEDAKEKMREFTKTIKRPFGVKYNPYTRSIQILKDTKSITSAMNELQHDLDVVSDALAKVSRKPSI

Mus musculus [23] = test: Effect on total travelled distance of C57BL/6N mouse at 20 mg/kg, po treated for 14 days by locomotor activity test; format: functional, organism-based; conditions: time 14.0 day
[24] = Plasma concentration in CD-1 (ICR) mouse at 50 mg/kg measured 0.5 hrs by LC-MS/MS analysis; format: ADME, organism-based
[25] = Tlast in Sprague-Dawley rat at 20 mg/kg, po measured upto 1440 mins by LC-MS/MS analysis; format: ADME, organism-based; conditions: in vivo, 24 h
[26] = AUMCExtra in Sprague-Dawley rat at 20 mg/kg, po measured upto 1440 mins by LC-MS/MS analysis; format: ADME, organism-based; conditions: in vivo, 24 h
[27] = MRT (0 to infinitive) in Sprague-Dawley rat at 20 mg/kg, po measured upto 1440 mins by LC-MS/MS analysis; format: ADME, organism-based; conditions: in vivo
MC-38 [28] = test: Antitumor activity against mouse MC-38 cells subcutaneously transplanted in C57BL/6N mouse assessed as reduction in absolute tumor volume at 50 mg/kg, po bid measured on day 20 relative to control; format: functional; conditions: MC-38, 480 h, route sc, time 20 day

Sequence of Cytochrome P450 3A4 (P08684 whole entry): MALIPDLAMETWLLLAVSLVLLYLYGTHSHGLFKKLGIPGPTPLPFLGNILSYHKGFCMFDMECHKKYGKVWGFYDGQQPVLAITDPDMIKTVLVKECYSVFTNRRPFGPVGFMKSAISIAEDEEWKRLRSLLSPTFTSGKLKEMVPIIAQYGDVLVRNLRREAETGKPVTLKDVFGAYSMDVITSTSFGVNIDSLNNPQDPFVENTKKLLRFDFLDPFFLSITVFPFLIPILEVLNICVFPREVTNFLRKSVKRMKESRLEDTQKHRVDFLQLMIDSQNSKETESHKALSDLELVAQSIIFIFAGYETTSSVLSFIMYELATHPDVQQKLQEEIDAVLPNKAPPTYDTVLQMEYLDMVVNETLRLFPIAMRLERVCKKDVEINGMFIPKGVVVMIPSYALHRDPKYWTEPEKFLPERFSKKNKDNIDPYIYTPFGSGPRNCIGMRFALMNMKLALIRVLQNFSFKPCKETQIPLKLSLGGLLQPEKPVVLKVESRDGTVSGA

MRT last at 24 h [1]: 2.63 h | Drug uptake [2]: Bld | MRT inf [4]: 1.65 h | Cmax [5]: 4.1 µg/mL | MRT inf [6]: 0.7 h | Papp A→B at 5 µM [7]: < 5.4 nm/s | fraction unbound [8]: 0.52 | MRT last at 24 h [9]: 0.61 h | inhibition (INH) (Cytochrome P450 3A4): Not Active | concentration at 0.5 h [11]: 3160 ng/g | MRT last at 24 h [12]: 2.91 h | fraction unbound [13]: 0.49 | IC50 [15]: 0.016 µM | MRT last at 24 h [16]: 1.58 h | AUMC [17]: 4.6% | %AUCextra [19]: 0.84% | Activity [21]: 72% | Ka [22]: 2.29 10^6/M/s | concentration at 0.5 h [24]: 7.39 µg/mL | Tlast [25]: 24 h | AUMC [26]: 8.44% | MRT inf [27]: 3.14 h
Structure (SMILES): CCn1c(=O)[nH]c(=O)c2c1nc(Cc1cn3cc(C)sc3n1)n2CC1COC1
Activity [3]: Non-Toxic | inhibition in vivo at 50 mg/kg (MC-38 [10]): 35% | inhibition in vivo at 1.5 mg/kg [14]: 40% | inhibition in vivo at 15 mg/kg [18]: 50% | Activity (Mus musculus [20]): inactive | Activity (Mus musculus [23]): inactive | inhibition in vivo at 50 mg/kg (MC-38 [28]): 35%
